Laboratory results taken from US20240101540A1, “TARGETED PROTEIN DEGRADATION OF PARP14 FOR USE IN THERAPY” (Ribon Therapeutics, Inc., priority 2022, published 2024).
Where a name gives a salt, the structure may show the parent alone.

Target: T1, HiBiT tagged PARP14 (Homo sapiens, UniProt Q460N5)
T1 construct: engineered to contain a HiBiT tag on both alleles of the PARP14 gene; endogenous in cells; host or cells: Jurkat cells stably transfected with LgBiT (Promega), PARP14 locus edited by CRISPR/Cas9
T1 sequence (Q460N5 whole entry): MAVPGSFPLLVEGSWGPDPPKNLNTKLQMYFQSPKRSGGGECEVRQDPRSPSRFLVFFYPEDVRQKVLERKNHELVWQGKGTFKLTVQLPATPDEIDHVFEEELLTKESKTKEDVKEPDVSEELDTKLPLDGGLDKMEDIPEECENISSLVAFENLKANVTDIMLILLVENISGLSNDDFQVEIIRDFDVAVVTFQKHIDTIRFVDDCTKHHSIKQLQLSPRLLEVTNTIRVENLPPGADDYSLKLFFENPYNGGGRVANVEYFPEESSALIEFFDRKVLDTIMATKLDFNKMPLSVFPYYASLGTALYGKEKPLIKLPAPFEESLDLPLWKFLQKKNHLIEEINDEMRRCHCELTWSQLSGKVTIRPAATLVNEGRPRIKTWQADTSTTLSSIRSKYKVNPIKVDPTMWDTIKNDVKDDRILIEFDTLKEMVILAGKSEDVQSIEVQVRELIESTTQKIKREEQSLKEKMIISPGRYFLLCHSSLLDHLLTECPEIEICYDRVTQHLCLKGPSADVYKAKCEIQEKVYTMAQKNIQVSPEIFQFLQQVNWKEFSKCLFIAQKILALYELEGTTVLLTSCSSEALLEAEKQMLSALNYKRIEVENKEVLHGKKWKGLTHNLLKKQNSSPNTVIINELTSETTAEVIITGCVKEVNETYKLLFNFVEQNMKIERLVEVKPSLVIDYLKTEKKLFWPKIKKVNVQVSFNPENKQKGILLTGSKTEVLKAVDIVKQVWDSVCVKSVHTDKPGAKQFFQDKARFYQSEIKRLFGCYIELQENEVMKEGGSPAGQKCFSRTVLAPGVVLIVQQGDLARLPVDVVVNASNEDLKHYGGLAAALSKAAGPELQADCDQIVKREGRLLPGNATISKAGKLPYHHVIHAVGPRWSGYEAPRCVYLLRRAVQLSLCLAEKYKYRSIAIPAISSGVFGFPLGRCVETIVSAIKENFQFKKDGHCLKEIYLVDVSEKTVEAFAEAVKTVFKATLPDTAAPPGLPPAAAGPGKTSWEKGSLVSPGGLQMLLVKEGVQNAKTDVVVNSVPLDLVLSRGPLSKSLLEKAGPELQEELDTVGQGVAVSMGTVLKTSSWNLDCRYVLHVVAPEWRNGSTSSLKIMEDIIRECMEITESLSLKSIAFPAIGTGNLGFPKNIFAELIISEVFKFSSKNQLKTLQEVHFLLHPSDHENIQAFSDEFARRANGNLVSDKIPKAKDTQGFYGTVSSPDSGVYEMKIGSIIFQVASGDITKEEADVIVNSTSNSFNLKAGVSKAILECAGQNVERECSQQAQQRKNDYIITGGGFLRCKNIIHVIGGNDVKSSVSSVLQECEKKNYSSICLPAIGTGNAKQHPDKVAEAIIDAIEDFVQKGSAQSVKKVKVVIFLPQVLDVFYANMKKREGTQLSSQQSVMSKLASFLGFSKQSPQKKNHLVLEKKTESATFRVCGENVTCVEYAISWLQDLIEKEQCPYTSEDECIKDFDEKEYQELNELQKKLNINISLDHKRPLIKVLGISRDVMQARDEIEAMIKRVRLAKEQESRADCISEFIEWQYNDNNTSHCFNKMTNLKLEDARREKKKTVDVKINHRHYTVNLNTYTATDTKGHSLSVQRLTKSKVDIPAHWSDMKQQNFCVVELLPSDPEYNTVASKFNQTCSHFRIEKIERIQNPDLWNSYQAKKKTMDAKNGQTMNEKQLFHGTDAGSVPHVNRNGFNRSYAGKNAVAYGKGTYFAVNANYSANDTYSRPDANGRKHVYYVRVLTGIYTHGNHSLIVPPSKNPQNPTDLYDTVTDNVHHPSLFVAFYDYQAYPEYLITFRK
Assay: HiBiT assay for the degradation of PARP14 (HiBiT tagged PARP14 in LgBiT expressing Jurkat cells, 2 or 24 hours)
Assay type: cell-based
Settings: Assay B (Example B): HiBiT tagged PARP14 degradation in LgBiT expressing Jurkat cells, read-out: DC50
Procedure, shortened: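 Jurkat cells stably expressing LgBiT with CRISPR knock-in of C-terminal HiBiT on both PARP14 alleles, 5,000 cells/well, treated with compound dose-response at 37 °C for 2 or 24 h. Live Cell Substrate luminescence normalised to 0.1% DMSO wells; DC50 from 4-parameter fit with floating top, bottom, Hill.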

| Compound | DC50 |
| --- | --- |
| O=C1CCC(Nc2ccc(N3CCC4(CCN(CCOc5cc(F)c6c(=O)[nH]c(CSC7CCOCC7)nc6c5)CC4)CC3)c(F)c2)C(=O)N1 (stereo not drawn) [Example 215, 3-((3-fluoro-4-(9-(2-((5-fluoro-4-oxo-2-(((tetrahydro-2H-pyran-4-yl)thio)methyl)-3,4-dihydroquinazolin-7-yl)oxy)ethyl)-3,9-diazaspiro[5.5]undecan-3-yl)phenyl)amino)piperidine-2,6-dione] | < 30 nM |
| O=C1CCC(Nc2ccc(N3CCN(CCN4CCC(COc5cc(F)c6c(=O)[nH]c(CCC7CCOCC7)nc6c5)CC4)CC3)cc2F)C(=O)N1 (stereo not drawn) [Example 216, 3-((2-fluoro-4-(4-(2-(4-(((5-fluoro-4-oxo-2-(2-(tetrahydro-2H-pyran-4-yl)ethyl)-3,4-dihydroquinazolin-7-yl)oxy)methyl)piperidin-1-yl)ethyl)piperazin-1-yl)phenyl)amino)piperidine-2,6-dione] | < 30 nM |
| O=C1CCC(Nc2ccc(N3CCC(CN4CC(N5CCC(COc6cc(F)c7c(=O)[nH]c(CSC8CCOCC8)nc7c6)CC5)C4)CC3)c(F)c2)C(=O)N1 (stereo not drawn) [Example 217, 3-((3-fluoro-4-(4-((3-(4-(((5-fluoro-4-oxo-2-(((tetrahydro-2H-pyran-4-yl)thio)methyl)-3,4-dihydroquinazolin-7-yl)oxy)methyl)piperidin-1-yl)azetidin-1-yl)methyl)piperidin-1-yl)phenyl)amino)piperidine-2,6-dione formate] | < 30 nM |
| O=C1CCC(Nc2cc(F)c(N3CCC(N4CC(N5CCC(COc6cc(F)c7c(=O)[nH]c(CSC8CCOCC8)nc7c6)CC5)C4)CC3)cc2F)C(=O)N1 (stereo not drawn) [Example 218, 3-((2,5-difluoro-4-(4-(3-(4-(((5-fluoro-4-oxo-2-(((tetrahydro-2H-pyran-4-yl)thio)methyl)-3,4-dihydroquinazolin-7-yl)oxy)methyl)piperidin-1-yl)azetidin-1-yl)piperidin-1-yl)phenyl)amino)piperidine-2,6-dione] | < 30 nM |
| O=C1CCC(Nc2ccc(N3CCC(N4CCC(COc5cc(F)c6c(=O)[nH]c(CC7CC7)nc6c5)CC4)CC3)c(F)c2)C(=O)N1 (stereo not drawn) [Example 219, 3-((4-(4-(((2-(cyclopropylmethyl)-5-fluoro-4-oxo-3,4-dihydroquinazolin-7-yl)oxy)methyl)-[1,4′-bipiperidin]-1′-yl)-3-fluorophenyl)amino)piperidine-2,6-dione formate] | < 30 nM |
| O=C1CCC(Nc2ccc(N3CCC(CN4CCC(C#Cc5cc(F)c6c(=O)[nH]c(CSC7CCOCC7)nc6c5)CC4)CC3)c(F)c2)C(=O)N1 (stereo not drawn) [Example 220, 3-((3-fluoro-4-(4-((4-((5-fluoro-4-oxo-2-(((tetrahydro-2H-pyran-4-yl)thio)methyl)-3,4-dihydroquinazolin-7-yl)ethynyl)piperidin-1-yl)methyl)piperidin-1-yl)phenyl)amino)piperidine-2,6-dione formate] | < 30 nM |
| O=C1CCC(Nc2ccc(N3CCC(N4CC(N5CCC(COc6cc(F)c7c(=O)[nH]c(CSC8CCOCC8)nc7c6)CC5)C4)CC3)cc2F)C(=O)N1 (stereo not drawn) [Example 221, 3-((2-fluoro-4-(4-(3-(4-(((5-fluoro-4-oxo-2-(((tetrahydro-2H-pyran-4-yl)thio)methyl)-3,4-dihydroquinazolin-7-yl)oxy)methyl)piperidin-1-yl)azetidin-1-yl)piperidin-1-yl)phenyl)amino)piperidine-2,6-dione formate] | < 30 nM |
| O=C1CCC(Nc2ccc(N3CCC(N4CCC(COc5cc(F)c6c(=O)[nH]c(CSC7CCOCC7)nc6c5)CC4)CC3)cc2F)C(=O)N1 (stereo not drawn) [Example 222, 3-((2-fluoro-4-(4-(((5-fluoro-4-oxo-2-(((tetrahydro-2H-pyran-4-yl)thio)methyl)-3,4-dihydroquinazolin-7-yl)oxy)methyl)-[1,4′-bipiperidin]-1′-yl)phenyl)amino)piperidine-2,6-dione] | < 30 nM |
| O=C1CCC(Nc2ccc(N3CCC(N4CCC(CCOc5cc(F)c6c(=O)[nH]c(CSC7CCOCC7)nc6c5)CC4)CC3)c(F)c2)C(=O)N1 (stereo not drawn) [Example 223, 3-((3-fluoro-4-(4-(2-((5-fluoro-4-oxo-2-(((tetrahydro-2H-pyran-4-yl)thio)methyl)-3,4-dihydroquinazolin-7-yl)oxy)ethyl)-[1,4′-bipiperidin]-1′-yl)phenyl)amino)piperidine-2,6-dione] | < 30 nM |
| O=C1CCC(Nc2ccc(N3CCC(N4CCC(CN5CCC(COc6cc(F)c7c(=O)[nH]c(CSC8CCOCC8)nc7c6)CC5)CC4)CC3)c(F)c2)C(=O)N1 (stereo not drawn) [Example 224, 3-((3-fluoro-4-(4-((4-(((5-fluoro-4-oxo-2-(((tetrahydro-2H-pyran-4-yl)thio)methyl)-3,4-dihydroquinazolin-7-yl)oxy)methyl)piperidin-1-yl)methyl)-[1,4′-bipiperidin]-1′-yl)phenyl)amino)piperidine-2,6-dione] | < 30 nM |
| O=C1CCC(Nc2ccc(N3CCC(N4CCC(C(=O)N5CCC(COc6cc(F)c7c(=O)[nH]c(CSC8CCOCC8)nc7c6)CC5)CC4)CC3)c(F)c2)C(=O)N1 (stereo not drawn) [Example 225, 3-((3-fluoro-4-(4-(4-(((5-fluoro-4-oxo-2-(((tetrahydro-2H-pyran-4-yl)thio)methyl)-3,4-dihydroquinazolin-7-yl)oxy)methyl)piperidine-1-carbonyl)-[1,4′-bipiperidin]-1′-yl)phenyl)amino)piperidine-2,6-dione] | < 30 nM |
| O=C1CCC(Nc2ccc(N3CCN(CCN4CCC(C#Cc5cc(F)c6c(=O)[nH]c(CSC7CCOCC7)nc6c5)CC4)CC3)c(F)c2)C(=O)N1 (stereo not drawn) [Example 226, 3-((3-fluoro-4-(4-(2-(4-((5-fluoro-4-oxo-2-(((tetrahydro-2H-pyran-4-yl)thio)methyl)-3,4-dihydroquinazolin-7-yl)ethynyl)piperidin-1-yl)ethyl)piperazin-1-yl)phenyl)amino)piperidine-2,6-dione formate] | < 30 nM |
| O=C1CCC(Nc2ccc(N3CC4(CC(CN5CCC(COc6cc(F)c7c(=O)[nH]c(CSC8CCOCC8)nc7c6)CC5)C4)C3)c(F)c2)C(=O)N1 (stereo not drawn) [Example 227, 3-((3-fluoro-4-(6-((4-(((5-fluoro-4-oxo-2-(((tetrahydro-2H-pyran-4-yl)thio)methyl)-3,4-dihydroquinazolin-7-yl)oxy)methyl)piperidin-1-yl)methyl)-2-azaspiro[3.3]heptan-2-yl)phenyl)amino)piperidine-2,6-dione formate] | < 30 nM |
| O=C1CCC(Nc2ccc(N3CCC(N4CCC(N5CCC(COc6cc(F)c7c(=O)[nH]c(CSC8CCOCC8)nc7c6)CC5)CC4)CC3)c(F)c2)C(=O)N1 (stereo not drawn) [Example 228, 3-((3-fluoro-4-(4-(((5-fluoro-4-oxo-2-(((tetrahydro-2H-pyran-4-yl)thio)methyl)-3,4-dihydroquinazolin-7-yl)oxy)methyl)-[1,4′:1′,4″-terpiperidin]-1″-yl)phenyl)amino)piperidine-2,6-dione diformate] | < 30 nM |
| COc1cc(N2CCC(CN3CCC(COc4cc(F)c5c(=O)[nH]c(CSC6CCOCC6)nc5c4)CC3)CC2)c(F)cc1NC1CCC(=O)NC1=O (stereo not drawn) [Example 229, 3-((5-fluoro-4-(4-((4-(((5-fluoro-4-oxo-2-(((tetrahydro-2H-pyran-4-yl)thio)methyl)-3,4-dihydroquinazolin-7-yl)oxy)methyl)piperidin-1-yl)methyl)piperidin-1-yl)-2-methoxyphenyl)amino)piperidine-2,6-dione] | < 30 nM |
